The source of these data is patent publication US20210238225A1, “PEPTIDOMIMETIC INHIBITORS OF THE PEPTIDYL-PROLYL CIS/TRANS ISOMERASE (PIN1)” (DANA-FARBER CANCER INSTITUTE, INC., priority 2018, published 2021).

Where two headings read alike, the source gives them in different places. Non-standard residues stand in square brackets, D forms with d. Residues, ends and D or L forms follow the SMILES beside them. *: point of attachment. alloThr(PO3H2) = C[C@H](OP(=O)(O)O)[C@H](N)C(=O)O; Phe(4-CONH2) = NC(=O)c1ccc(C[C@H](N)C(=O)O)cc1; Bpa = N[C@@H](Cc1ccc(C(=O)c2ccccc2)cc1)C(=O)O; 2Nal = N[C@@H](Cc1ccc2ccccc2c1)C(=O)O; Met(O2) = CS(=O)(=O)CC[C@H](N)C(=O)O; β3hE = N[C@@H](CCC(=O)O)CC(=O)O; Cha = N[C@@H](CC1CCCCC1)C(=O)O; Cit = NC(=O)NCCC[C@H](N)C(=O)O; aThr = C[C@H](O)[C@H](N)C(=O)O; Pip = O=C(O)[C@@H]1CCCCN1; Ac6c = NC1(C(=O)O)CCCCC1; 2Abz = Nc1ccccc1C(=O)O; ClAc = O=C(CCl)*

What is called Ki is the equilibrium dissociation constant of an inhibitor or competing ligand from its target.

This test addresses Pin1 (GST-Pin1) (Homo sapiens, UniProt Q13526). The experiment in a line: Fluorescence polarization (FP) assay, binding to Pin1. The settings on record: competition with fluorescein-labeled peptide probe, 12 hours pre-incubation at 4° C., Kenakin Ki equation. In general terms: Fluorescence polarisation rises when a labelled molecule tumbles more slowly, as on binding a larger partner.

Sequence of Pin1 (GST-Pin1) (Q13526 whole entry): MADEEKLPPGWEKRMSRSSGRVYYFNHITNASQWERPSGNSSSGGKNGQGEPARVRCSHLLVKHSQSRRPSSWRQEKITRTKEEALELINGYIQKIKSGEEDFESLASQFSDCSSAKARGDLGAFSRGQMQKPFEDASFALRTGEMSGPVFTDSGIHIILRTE

`COC(=O)CC[C@H](NC(=O)CCl)C(=O)N1CCCC[C@H]1C(=O)N[C@@H](Cc1c[nH]c2ccccc12)C(=O)N[C@@H](Cc1ccc(O)cc1)C(=O)NCc1ccc(C)cc1` (single isomer, unassigned) [Compound 11-26]: the Ki (read-out: Ki, μM (FP Assay)) was over 10 µM.
Regarding `COC(=O)CC[C@H](NC(=O)CCl)C(=O)N1CCCC[C@H]1C(=O)N[C@@H](Cc1c[nH]c2ccccc12)C(=O)N[C@@H](CCCNC(N)=O)C(N)=O` [Compound 2, Methyl (S)-5-((S)-2-(((S)-1-(((S)-1-amino-1-oxo-5-ureidopentan-2-yl)amino)-3-(1H-indol-3-yl)-1-oxopropan-2-yl)carbamoyl)piperidin-1-yl)-4-(2-chloroacetamido)-5-oxopentanoate] (ClAc-E(OMe)[Pip]W[Cit]-NH2), the Ki (read-out: Ki, μM (FP Assay)) was determined as 0.074 µM.
Regarding `NC(=O)CC[C@H](NC(=O)[C@H](Cc1ccc2ccccc2c1)NC(=O)[C@@H]1CCCCN1C(=O)[C@@H](CC(=O)O)NC(=O)CCl)C(N)=O` [Compound 2-1, (R)-3-(2-Chloroacetamido)-4-((S)-2-(((S)-1-(((S)-1,5-diamino-1,5-dioxopentan-2-yl)amino)-3-(naphthalen-2-yl)-1-oxopropan-2-yl)carbamoyl)piperidin-1-yl)-4-oxobutanoic acid] (ClAc-[dD][Pip][2Nal]Q-NH2), the Ki (read-out: Ki, μM (FP Assay)) is over 10 µM.
Regarding `NC(=O)CC[C@H](NC(=O)[C@H](Cc1ccc2ccccc2c1)NC(=O)[C@@H]1CCCCN1C(=O)[C@H](CC(=O)O)NC(=O)CCl)C(N)=O` [Compound 2-2, (S)-3-(2-Chloroacetamido)-4-((S)-2-(((S)-1-(((S)-1,5-diamino-1,5-dioxopentan-2-yl)amino)-3-(naphthalen-2-yl)-1-oxopropan-2-yl)carbamoyl)piperidin-1-yl)-4-oxobutanoic acid] (ClAc-D[Pip][2Nal]Q-NH2), for the setting “read-out: Ki, μM (FP Assay)”, the Ki was over 10 µM.
`CS(=O)(=O)CC[C@H](NC(=O)CCl)C(=O)N1CCCC[C@H]1C(=O)N[C@@H](Cc1ccc2ccccc2c1)C(=O)N[C@@H](CCC(N)=O)C(N)=O` [Compound 2-3, (S)-2-((S)-2-((S)-1-((S)-2-(2-Chloroacetamido)-4-(methylsulfonyl)butanoyl)piperidine-2-carboxamido)-3-(naphthalen-2-yl)propanamido)pentanediamide] (ClAc-[Met(O2)][Pip][2Nal]Q-NH2): the inhibition constant Ki (read-out: Ki, μM (FP Assay)) was over 10 µM.
As for `C[C@H](OP(=O)(O)O)[C@H](NC(=O)CCl)C(=O)N1CCCC[C@H]1C(=O)N[C@@H](Cc1ccc2ccccc2c1)C(=O)N[C@@H](CCC(N)=O)C(N)=O` [Compound 2-4, (2S,3S)-3-(2-Chloroacetamido)-4-((S)-2-(((S)-1-(((S)-1,5-diamino-1,5-dioxopentan-2-yl)amino)-3-(naphthalen-2-yl)-1-oxopropan-2-yl)carbamoyl)piperidin-1-yl)-4-oxobutan-2-yl dihydrogen phosphate] (ClAc-[alloThr(PO3H2)][Pip][2Nal]Q-NH2), the Ki (read-out: Ki, μM (FP Assay)) amounted to 1.24 µM.
In the case of `C[C@H](OP(=O)(O)O)[C@H](NC(=O)CCl)C(=O)N1CCCC[C@H]1C(=O)N[C@@H](Cc1ccc2ccccc2c1)C(=O)N[C@@H](CCCNC(=N)N)C(N)=O` [Compound 2-5, (2S,3S)-4-((S)-2-(((S)-1-(((S)-1-Amino-5-guanidino-1-oxopentan-2-yl)amino)-3-(naphthalen-2-yl)-1-oxopropan-2-yl)carbamoyl)piperidin-1-yl)-3-(2-chloroacetamido)-4-oxobutan-2-yl dihydrogen phosphate] (ClAc-[alloThr(PO3H2)][Pip][2Nal]R-NH2), for the setting “read-out: Ki, μM (FP Assay)”, the Ki amounted to 0.13 µM.
Turning to `C[C@H](O)[C@H](NC(=O)[C@H](Cc1ccc2ccccc2c1)NC(=O)[C@@H]1CCCCN1C(=O)[C@H](CCC(=O)O)NC(=O)CCl)C(N)=O` [Compound 2-7, (S)-5-((S)-2-(((S)-1-(((2S,3S)-1-Amino-3-hydroxy-1-oxobutan-2-yl)amino)-3-(naphthalen-2-yl)-1-oxopropan-2-yl)carbamoyl)piperidin-1-yl)-4-(2-chloroacetamido)-5-oxopentanoic acid] (ClAc-E[Pip][2Nal][aThr]-NH2), for the setting “read-out: Ki, μM (FP Assay)”, the Ki turned out to be 0.3 µM.
With `NC(=O)C[C@H](NC(=O)[C@H](Cc1ccc2ccccc2c1)NC(=O)[C@@H]1CCCCN1C(=O)[C@H](CCC(=O)O)NC(=O)CCl)C(N)=O` [Compound 2-8, (S)-4-(2-Chloroacetamido)-5-((S)-2-(((S)-1-(((S)-1,4-diamino-1,4-dioxobutan-2-yl)amino)-3-(naphthalen-2-yl)-1-oxopropan-2-yl)carbamoyl)piperidin-1-yl)-5-oxopentanoic acid] (ClAc-E[Pip][2Nal]N-NH2), the Ki (read-out: Ki, μM (FP Assay)) turned out to be 0.13 µM.
As to `NC(=O)c1ccc(C[C@H](NC(=O)[C@H](Cc2ccc3ccccc3c2)NC(=O)[C@@H]2CCCCN2C(=O)[C@H](CCC(=O)O)NC(=O)CCl)C(N)=O)cc1` [Compound 2-9, (S)-5-((S)-2-(((S)-1-(((S)-1-Amino-3-(4-carbamoylphenyl)-1-oxopropan-2-yl)amino)-3-(naphthalen-2-yl)-1-oxopropan-2-yl)carbamoyl)piperidin-1-yl)-4-(2-chloroacetamido)-5-oxopentanoic acid] (ClAc-E[Pip][2Nal][Phe(4-CONH2)]-NH2), the inhibition constant (Ki) (read-out: Ki, μM (FP Assay)) was determined as 0.33 µM.
Take `NC(=O)NCCC[C@H](NC(=O)[C@H](Cc1ccc2ccccc2c1)NC(=O)C1(NC(=O)[C@H](CCC(=O)O)NC(=O)CCl)CCCCC1)C(N)=O` [Compound 2-10, (S)-5-((1-(((S)-1-(((S)-1-Amino-1-oxo-5-ureidopentan-2-yl)amino)-3-(naphthalen-2-yl)-1-oxopropan-2-yl)carbamoyl)cyclohexyl)amino)-4-(2-chloroacetamido)-5-oxopentanoic acid] (ClAc-E[Ac6c][2Nal][Cit]-NH2): the Ki (Ki, μM (FP Assay)) was over 10 µM.
With `NC(=O)NCCC[C@H](NC(=O)[C@H](Cc1ccc2ccccc2c1)NC(=O)[C@@H]1CCCCN1C(=O)C[C@H](CCC(=O)O)NC(=O)CCl)C(N)=O` [Compound 2-12, (S)-6-((S)-2-(((S)-1-(((S)-1-Amino-1-oxo-5-ureidopentan-2-yl)amino)-3-(naphthalen-2-yl)-1-oxopropan-2-yl)carbamoyl)piperidin-1-yl)-4-(2-chloroacetamido)-6-oxohexanoic acid] (ClAc-[β3hE][Pip][2Nal][Cit]-NH2), the Ki (read-out: Ki, μM (FP Assay)) worked out at 0.106 µM.
Same read-out and setting: to `NC(=O)[C@H](Cc1c[nH]c2ccccc12)NC(=O)[C@H](Cc1ccc2ccccc2c1)NC(=O)[C@@H]1CCCCN1C(=O)[C@H](CCC(=O)O)NC(=O)CCl` [Compound 2-13, (S)-5-((S)-2-(((S)-1-(((S)-1-Amino-3-(1H-indol-3-yl)-1-oxopropan-2-yl)amino)-3-(naphthalen-2-yl)-1-oxopropan-2-yl)carbamoyl)piperidin-1-yl)-4-(2-chloroacetamido)-5-oxopentanoic acid] (ClAc-E[Pip][2Nal]W-NH2) belongs 0.13 µM; to `CS(=O)(=O)CC[C@H](NC(=O)CCl)C(=O)N1CCCC[C@H]1C(=O)N[C@@H](Cc1ccc2ccccc2c1)C(=O)N[C@@H](CCCNC(N)=O)C(N)=O` [Compound 2-14, (S)—N—((S)-1-(((S)-1-Amino-1-oxo-5-ureidopentan-2-yl)amino)-3-(naphthalen-2-yl)-1-oxopropan-2-yl)-1-((S)-2-(2-chloroacetamido)-4-(methylsulfonyl)butanoyl)piperidine-2-carboxamide] (ClAc-[Met(O2)][Pip][2Nal][Cit]-NH2), 0.13 µM.
As to `NC(=O)NCCC[C@H](NC(=O)[C@H](Cc1ccc2ccccc2c1)NC(=O)[C@H](CC1CCCCC1)NC(=O)[C@H](CCC(=O)O)NC(=O)CCl)C(N)=O` [Compound 2-15, (6S,9S,12S,15S)-1-Amino-6-carbamoyl-15-(2-chloroacetamido)-12-(cyclohexylmethyl)-9-(naphthalen-2-ylmethyl)-1,8,11,14-tetraoxo-2,7,10,13-tetraazaoctadecan-18-oic acid] (ClAc-E[Cha][2Nal][Cit]-NH2), under “Ki, μM (FP Assay)”, the inhibition constant Ki is over 10 µM.
For the compound `NC(=O)NCCC[C@H](NC(=O)[C@H](Cc1ccc2ccccc2c1)NC(=O)c1ccccc1NC(=O)[C@H](CCC(=O)O)NC(=O)CCl)C(N)=O` [Compound 2-16, (S)-5-((2-(((S)-1-(((S)-1-Amino-1-oxo-5-ureidopentan-2-yl)amino)-3-(naphthalen-2-yl)-1-oxopropan-2-yl)carbamoyl)phenyl)amino)-4-(2-chloroacetamido)-5-oxopentanoic acid] (ClAc-E[2Abz][2Nal][Cit]-NH2), the Ki (read-out: Ki, μM (FP Assay)) was over 10 µM.
As for `NC(=O)NCCC[C@H](NC(=O)[C@H](Cc1ccc(C(=O)c2ccccc2)cc1)NC(=O)[C@@H]1CCCCN1C(=O)[C@H](CCC(=O)O)NC(=O)CCl)C(N)=O` [Compound 2-17, (S)-5-((S)-2-(((S)-1-(((S)-1-Amino-1-oxo-5-ureidopentan-2-yl)amino)-3-(4-benzoylphenyl)-1-oxopropan-2-yl)carbamoyl)piperidin-1-yl)-4-(2-chloroacetamido)-5-oxopentanoic acid] (ClAc-E[Pip][Bpa][Cit]-NH2), for the setting “read-out: Ki, μM (FP Assay)”, the Ki came out at 0.11 µM.
Same read-out and setting: then `COC(=O)CC[C@H](NC(=O)CCl)C(=O)N1CCCC[C@H]1C(=O)N[C@@H](Cc1ccc2ccccc2c1)C(=O)N[C@@H](CCCNC(N)=O)C(N)=O` [Compound 2-18, Methyl (S)-5-((S)-2-(((S)-1-(((S)-1-amino-1-oxo-5-ureidopentan-2-yl)amino)-3-(naphthalen-2-yl)-1-oxopropan-2-yl)carbamoyl)piperidin-1-yl)-4-(2-chloroacetamido)-5-oxopentanoate] (ClAc-E(OMe)[Pip][2Nal][Cit]-NH2), with 0.14 µM; and `CC(=O)N[C@@H](CCC(=O)O)C(=O)N1CCCC[C@H]1C(=O)N[C@@H](Cc1ccc2ccccc2c1)C(=O)N[C@@H](CCCNC(N)=O)C(N)=O` [Compound 2-19, (S)-4-Acetamido-5-((S)-2-(((S)-1-(((S)-1-amino-1-oxo-5-ureidopentan-2-yl)amino)-3-(naphthalen-2-yl)-1-oxopropan-2-yl)carbamoyl)piperidin-1-yl)-5-oxopentanoic acid] (Ac-E[Pip][2Nal][Cit]-NH2), with over 10 µM.
